# Results reported in patent US10030027B2, “Soluble guanylate cyclase stimulators” (MERCK SHARP & DOHME CORP., priority 2015, dated 2018).
# Biological target: sGC α1/β1 heterodimer (Homo sapiens (Human), UniProt Q02108+Q02153)
# Experiment: Cell-based sGC functional assay (cyclic GMP assay for sGC activator: CASA assay)
# Conditions: CHO-K1/sGC cells; for Emax: CHO-K1, activity expressed as percentage of compound A (standard), read-out: % Activation; for EC50: inflection point, 4P fit, read-out: IP
# Text: Cell-Based sGC Functional Assay (Cyclic GMP Assay for sGC Activator: CASA Assay)
# Soluble guanylate cyclase (sGC) is a heme-containing enzyme that converts GTP to secondary messenger cGMP. Increases in cGMP levels affect several physiological processes including vasorelaxation through multiple downstream pathways. […] Heme-dependent activators (HDAs) preferentially activate sGC containing a ferrous heme group. To determine the effect of sGC activators on enzyme activity, the CASA assay was developed to monitor the generation of cGMP in a cell line that stably expresses the heterodimeric sGC protein.
# A CHO-K1 cell line stably expressing the sGC α1/β1 heterodimer was generated using a standard transfection protocol. CHO-K1 cells were transfected with plasmids pIREShyghsGCα1 and pIRESneo-hsGCβ1 simultaneously using FUGENE reagent. Clones that stably express both subunits were selected with hygromycin and neomycin for ˜2 weeks. Clone #7 was chosen for the assay and was designated CHO-K1/sGC. CHO-K1/sGC cells were maintained in F-K12 medium containing 10% heat-inactivated Fetal Bovine Serum (FBS), 100 μg/mL penicillin/streptomycin, 0.5 mg/mL hygromycin and 0.25 mg/mL G418. The cells were then cryopreserved in LN2. On the day of the assay, the cells were thawed and resuspended in EBSS Assay Buffer (Sigma, E3024) supplemented with 5 mM MgCl2, 10 mM HEPES (4-(2-hydroxyethyl)piperazine-1-ethanesulfonic acid) and 0.05% BSA (bovine serum albumin) (EAB) and cell density was then adjusted to 2.25×10^5/mL with EAB. IBMX (3-isobutyl-1-methylxanthin, 0.5 mM) was added to inhibit degradation of cGMP. Compounds were diluted from DMSO stock solutions and added to the assay at a final DMSO concentration of 2.5%. Cells were pre-incubated in the presence and absence of 1 μM of Diethylenetriamine/nitric oxide adduct (DETA-NO; Sigma, 17018) for 30 min at 25° C. Compounds are subsequently added and incubated for 1 hr at 37° C. At the end of the incubation period, the reaction was terminated and the cells were lysed with the detection reagents from Cisbio Kits. The level of intracellular cGMP was determined using an HTRF-based assay kit (CisBio, 62GM2PEC), which detects the displacement of a fluorescence labeled cGMP from its specific antibody. The cGMP produced by test compounds was directly compared to the maximum cGMP production (this value was set to equal 100% activation.) of the published sGC-HDA compound A:
# (Example 1 in WO 2010/065275, published Jun. 10, 2010). The test compounds' activity were then expressed as a percentage of compound A, the standard in every experiment. This percent activation was calculated either in the presence or absence of DETA-NO which was then plotted. Inflection points (IP) and maximum fold induction was derived using Abase analysis software for 4P fit.
# Sequence of sGC α1/β1 heterodimer (Q02108 whole entry): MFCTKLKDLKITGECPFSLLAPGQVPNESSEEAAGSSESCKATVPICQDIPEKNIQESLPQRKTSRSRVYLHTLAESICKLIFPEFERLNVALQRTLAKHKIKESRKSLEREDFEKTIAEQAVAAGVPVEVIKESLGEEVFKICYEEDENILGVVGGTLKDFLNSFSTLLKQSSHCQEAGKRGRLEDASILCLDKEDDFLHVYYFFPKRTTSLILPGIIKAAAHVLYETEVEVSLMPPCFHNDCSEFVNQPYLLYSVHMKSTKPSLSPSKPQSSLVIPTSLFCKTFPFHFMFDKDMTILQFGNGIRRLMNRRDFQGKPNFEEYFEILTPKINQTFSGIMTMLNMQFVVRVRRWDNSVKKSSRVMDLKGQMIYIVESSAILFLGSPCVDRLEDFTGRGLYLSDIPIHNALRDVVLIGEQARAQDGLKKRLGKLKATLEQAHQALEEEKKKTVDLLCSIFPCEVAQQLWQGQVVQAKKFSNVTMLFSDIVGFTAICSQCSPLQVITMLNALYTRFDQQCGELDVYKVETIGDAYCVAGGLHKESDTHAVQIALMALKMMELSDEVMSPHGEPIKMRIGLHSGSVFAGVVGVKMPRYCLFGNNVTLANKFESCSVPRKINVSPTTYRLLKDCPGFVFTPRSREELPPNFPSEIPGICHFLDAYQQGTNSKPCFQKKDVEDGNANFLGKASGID
# Sequence of sGC α1/β1 heterodimer (Q02153 whole entry): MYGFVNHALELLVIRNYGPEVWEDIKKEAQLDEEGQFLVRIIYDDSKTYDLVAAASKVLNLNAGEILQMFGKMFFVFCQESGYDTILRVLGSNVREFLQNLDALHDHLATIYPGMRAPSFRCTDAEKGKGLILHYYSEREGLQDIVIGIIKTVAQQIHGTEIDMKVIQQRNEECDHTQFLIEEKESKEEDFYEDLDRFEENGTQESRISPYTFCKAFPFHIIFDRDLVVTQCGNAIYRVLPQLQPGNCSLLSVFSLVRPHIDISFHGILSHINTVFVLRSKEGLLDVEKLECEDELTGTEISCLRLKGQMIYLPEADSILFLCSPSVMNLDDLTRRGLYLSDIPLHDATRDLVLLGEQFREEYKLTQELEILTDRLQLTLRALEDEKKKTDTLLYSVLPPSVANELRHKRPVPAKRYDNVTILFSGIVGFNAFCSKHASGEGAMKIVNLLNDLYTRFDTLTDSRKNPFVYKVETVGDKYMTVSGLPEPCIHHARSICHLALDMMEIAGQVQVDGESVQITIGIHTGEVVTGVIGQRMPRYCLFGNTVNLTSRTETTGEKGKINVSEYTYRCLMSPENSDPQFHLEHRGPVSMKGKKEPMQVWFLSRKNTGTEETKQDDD
SMILES,Emax [%],EC50 [nM]
"C[C@@H](NC(=O)CCc1ccc([C@]2(C)C(=O)Nc3nc(-c4nn(Cc5ccccc5F)c5ncccc45)nc(N)c32)cc1)C(=O)O [Example 102B, (5S)-(3-(4-{4-amino-2-[1-(2-fluorobenzyl)-1H-pyrazolo[3,4-b]pyridin-3-yl]-5-methyl-6-oxo-6,7-dihydro-5H-pyrrolo[2,3-d]pyrimidin-5-yl}phenyl)propanoyl)-D-alanine]",100,573
"CC[C@@H](NC(=O)CCc1ccc([C@]2(C)C(=O)Nc3nc(-c4nn(Cc5ccccc5F)c5ncccc45)nc(N)c32)cc1)C(=O)O [Example 104B, (5S,2R)-2-(3-(4-{4-amino-2-[1-(2-fluorobenzyl)-1H-pyrazolo[3,4-b]pyridin-3-yl]-5-methyl-6-oxo-6,7-dihydro-5H-pyrrolo[2,3-d]pyrimidin-5-yl}phenyl)propanamido)butanoic acid]",106,1370
"CC(C)(CCc1csc(C2(C)C(=O)Nc3nc(-c4nn(Cc5ccccc5F)c5cc(Cl)ccc45)nc(N)c32)n1)C(=O)O (centres unmarked) [Example 166A, 4-(2-{4-amino-2-[6-chloro-1-(2-fluorobenzyl)-1H-indazol-3-yl]-5-methyl-6-oxo-6,7-dihydro-5H-pyrrolo[2,3-d]pyrimidin-5-yl}-1,3-thiazol-4-yl)-2,2-dimethyl-butanoic acid]",86.4,–
"Cc1cccc(Cn2nc(-c3nc(N)c4c(n3)NC(=O)C4(C)c3nc(CC(C)(C)C(=O)O)co3)c3ccc(F)cc32)c1F (centres unmarked) [Example 212A, 3-(2-{4-amino-2-[6-fluoro-1-(2-fluoro-3-methyl-benzyl)-1H-indazol-3-yl]-5-methyl-6-oxo-6,7-dihydro-5H-pyrrolo[2,3-d]pyrimidin-5-yl}-1,3-oxazol-4-yl)-2,2-dimethyl-propanoic acid]",135,–

# Other lines, results leading:
Emax [%],EC50 [nM],SMILES
108,178,"Cc1sc(C2(C)C(=O)Nc3nc(-c4nn(CCC(F)(F)C(F)(F)F)c5cc(Cl)ccc45)nc(N)c32)nc1-c1ccc(C(=O)O)cc1 (centres unmarked) [Example 94B, 4-(2-{4-amino-2-[6-chloro-1-(3,3,4,4,4-pentafluorobutyl)-1H-indazol-3-yl]-5-methyl-6-oxo-6,7-dihydro-5H-pyrrolo[2,3-d]pyrimidin-5-yl}-5-methyl-1,3-thiazol-4-yl)benzoic acid]"
113,397,"C[C@H](O)[C@@H](NC(=O)CCc1ccc([C@]2(C)C(=O)Nc3nc(-c4nn(Cc5ccccc5F)c5ncccc45)nc(N)c32)cc1)C(=O)O [Example 107B, (5S)-(3-(4-{4-amino-2-[1-(2-fluorobenzyl)-1H-pyrazolo[3,4-b]pyridin-3-yl]-5-methyl-6-oxo-6,7-dihydro-5H-pyrrolo[2,3-d]pyrimidin-5-yl}phenyl)propanoyl)-D-threonine]"
79,122,"CC1(c2ccc(CCCC(=O)O)cc2)C(=O)Nc2nc(-c3nn(Cc4ccccc4F)c4cc(Cl)ccc34)nc(N)c21 (centres unmarked) [Example 115A, 4-(4-{4-amino-2-[6-chloro-1-(2-fluorobenzyl)-1H-indazol-3-yl]-5-methyl-6-oxo-6,7-dihydro-5H-pyrrolo[2,3-d]pyrimidin-5-yl}phenyl)butanoic acid]"
69,302,"CC1(c2ccc(CC(=O)O)cc2)C(=O)Nc2nc(-c3nn(Cc4ccccc4F)c4cc(Cl)ccc34)nc(N)c21 (centres unmarked) [Example 117A, 2-(4-{4-amino-2-[6-chloro-1-(2-fluorobenzyl)-1H-indazol-3-yl]-5-methyl-6-oxo-6,7-dihydro-5H-pyrrolo[2,3-d]pyrimidin-5-yl}phenyl)acetic acid]"
